From PubChem BioAssay (NCI) come the findings set out here.

Some test systems named below: SNB-75 CNS; COLO 205 colon; MOLT-4 leukemia; MDA-MB-435; NCI-H522 lung; K-562 leukemia; LOX IMVI melanoma; OVCAR-5 ovarian; SK-OV-3 ovarian; MDA-N.
Common to all, as to experiment: growth of human tumour cells (NCI), 48 h

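All cell lines were grown in 96-well plates and treated with compound for 48 hours. TGI: total growth inhibition.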

For `COc1cccc(C23CCCC(C2)NCC3Br)c1OC` (stereo not given), the TGI with SNB-75 CNS is greater than 100 µM; in the assay with COLO 205 colon, 27.1 µM; with MOLT-4 leukemia it was greater than 100 µM; in the assay with MDA-MB-435 it was greater than 100 µM; in the assay with NCI-H522 lung it was 53.3 µM; in the assay with K-562 leukemia, greater than 100 µM. The TGI with LOX IMVI melanoma, in the assay on OVCAR-5 ovarian, with SK-OV-3 ovarian and in the assay with MDA-N was greater than 100 µM each time.
Regarding `COc1cc(-c2nc3ccc(N4CCN(C)CC4)cc3[nH]2)c(OC)c2[nH]c(COC(C)=O)nc12`, the TGI is 82 µM with SNB-75 CNS; greater than 100 µM with COLO 205 colon; greater than 100 µM with MOLT-4 leukemia; greater than 100 µM with MDA-MB-435; greater than 100 µM in the assay with NCI-H522 lung; greater than 100 µM in the assay with K-562 leukemia. Also, the TGI was 96.4 µM in the assay on LOX IMVI melanoma, greater than 100 µM with OVCAR-5 ovarian, greater than 100 µM in the assay on SK-OV-3 ovarian and greater than 100 µM in the assay with MDA-N.
For `COc1cc(CSc2ccc(O)cc2)cc(OC)c1OC`, the TGI in the assay on SNB-75 CNS is 86.2 µM; with COLO 205 colon it was greater than 100 µM; in the assay with MOLT-4 leukemia, greater than 100 µM; in the assay with MDA-MB-435 it was greater than 100 µM; in the assay with NCI-H522 lung, greater than 100 µM; in the assay with K-562 leukemia it was greater than 100 µM. Besides, the TGI in the assay with LOX IMVI melanoma, in the assay with OVCAR-5 ovarian, in the assay with SK-OV-3 ovarian and in the assay with MDA-N was greater than 100 µM each time.
Turning to `CCOC(=O)c1nc2ccc(C(F)(F)F)cc2nc1Nc1cc(OC)c(OC)c(OC)c1`, the TGI in the assay on SNB-75 CNS, in the assay on COLO 205 colon, in the assay with MOLT-4 leukemia, in the assay with MDA-MB-435, in the assay with NCI-H522 lung and in the assay on K-562 leukemia was greater than 100 µM in each case. The TGI in the assay with LOX IMVI melanoma, with OVCAR-5 ovarian, in the assay on SK-OV-3 ovarian and in the assay on MDA-N was greater than 100 µM in each case.
On to `Cc1ccc(C(=O)Nc2ccc(CP(=O)(O)O)cc2)cc1NC(=O)c1cccc(N)c1`, for which the TGI with SNB-75 CNS, in the assay with COLO 205 colon, in the assay on MOLT-4 leukemia, with MDA-MB-435, in the assay on NCI-H522 lung and in the assay with K-562 leukemia was greater than 100 µM in each case. In addition, the TGI with LOX IMVI melanoma, with OVCAR-5 ovarian, with SK-OV-3 ovarian and with MDA-N was greater than 100 µM throughout.
As to `CCCCCCCCCCCC(=O)OC[C@H](C[As](=O)(O)O)OC(=O)CCCCCCCCCCC`, the TGI in the assay with SNB-75 CNS is 24.7 µM; with COLO 205 colon, 38.8 µM; with MOLT-4 leukemia, greater than 81.4 µM; with MDA-MB-435, 9.5 µM; in the assay on NCI-H522 lung it was 5.09 µM; in the assay on K-562 leukemia it was greater than 52.5 µM. Further, the TGI in the assay with LOX IMVI melanoma was 23.6 µM; with OVCAR-5 ovarian, 32.7 µM; in the assay on SK-OV-3 ovarian, 28.9 µM; in the assay with MDA-N, 14.8 µM.
For the molecule `CCCNC(=S)N/N=C(\C)c1ccc(S(=O)(=O)N(C)c2ccccc2)cc1`, the TGI in the assay with SNB-75 CNS was greater than 58.4 µM; in the assay on COLO 205 colon, greater than 100 µM; in the assay with MOLT-4 leukemia, greater than 100 µM; with MDA-MB-435, greater than 100 µM; in the assay with NCI-H522 lung it was greater than 100 µM; with K-562 leukemia, greater than 100 µM. In addition, the TGI with LOX IMVI melanoma was greater than 100 µM; in the assay with OVCAR-5 ovarian, greater than 100 µM; in the assay with SK-OV-3 ovarian, 97 µM; in the assay on MDA-N it was greater than 100 µM.
For the molecule `O=C(CN(C(=O)OC12CC3CC(CC(C3)C1)C2)C(=O)OC12CC3CC(CC(C3)C1)C2)Oc1ccc([N+](=O)[O-])cc1`, the TGI in the assay on SNB-75 CNS, with COLO 205 colon, in the assay on MOLT-4 leukemia, in the assay with MDA-MB-435, in the assay on NCI-H522 lung and in the assay with K-562 leukemia was greater than 100 µM each time. Besides, the TGI with LOX IMVI melanoma, with OVCAR-5 ovarian, in the assay with SK-OV-3 ovarian and in the assay with MDA-N was greater than 100 µM in each case.
As to `CCCCn1c(CSc2ccc(Cl)cc2)c(C(=O)OCC)c2cc(OC)c(Br)cc21`, the TGI in the assay on SNB-75 CNS, in the assay with COLO 205 colon, with MOLT-4 leukemia, in the assay with MDA-MB-435, in the assay with NCI-H522 lung and in the assay on K-562 leukemia was greater than 100 µM in each case. The TGI in the assay on LOX IMVI melanoma, with OVCAR-5 ovarian, in the assay on SK-OV-3 ovarian and in the assay with MDA-N was greater than 100 µM each time.
For `COc1cc2c(c(OC)c1OC)C(=O)[C@@H]1[C@H]2N1C(=O)NCCCl`, the TGI is greater than 100 µM in the assay with SNB-75 CNS; 78.3 µM in the assay with COLO 205 colon; greater than 100 µM in the assay on MOLT-4 leukemia; greater than 100 µM in the assay on MDA-MB-435; greater than 100 µM in the assay with NCI-H522 lung; greater than 100 µM in the assay on K-562 leukemia. For the same molecule, the TGI in the assay with LOX IMVI melanoma, in the assay on OVCAR-5 ovarian, with SK-OV-3 ovarian and with MDA-N was greater than 100 µM each time.
Take `CSC1(C)C(=O)Nc2c(OCc3ccccc3)cc([N+](=O)[O-])cc21` (stereo not given): the TGI in the assay with SNB-75 CNS was 35.7 µM; in the assay with COLO 205 colon it was greater than 100 µM; in the assay with MOLT-4 leukemia, greater than 100 µM; with MDA-MB-435 it was greater than 100 µM; in the assay with NCI-H522 lung it was greater than 100 µM; in the assay with K-562 leukemia, greater than 100 µM. Further, the TGI in the assay on LOX IMVI melanoma, with OVCAR-5 ovarian, with SK-OV-3 ovarian and with MDA-N was greater than 100 µM throughout.
As for `COc1ccc(/C=C/C(=O)/C=C/c2ccc(OC)cc2OC)c(OC)c1`, the TGI worked out at 45.1 µM with SNB-75 CNS; 51.9 µM in the assay on COLO 205 colon; 40 µM in the assay on MOLT-4 leukemia; 8.24 µM in the assay on MDA-MB-435; 8.7 µM in the assay with NCI-H522 lung; 8.4 µM with K-562 leukemia. Besides, the TGI in the assay with LOX IMVI melanoma is 18.1 µM; with OVCAR-5 ovarian, 36.5 µM; in the assay with SK-OV-3 ovarian it was 37.7 µM; in the assay with MDA-N it was 6 µM.
With `O=c1c2ccccc2[nH]n1Cc1ccccc1`, the TGI in the assay with SNB-75 CNS, in the assay with COLO 205 colon, with MOLT-4 leukemia, in the assay with MDA-MB-435, in the assay with NCI-H522 lung and in the assay on K-562 leukemia was greater than 100 µM each time. Moreover, the TGI in the assay on LOX IMVI melanoma, with OVCAR-5 ovarian, in the assay on SK-OV-3 ovarian and in the assay on MDA-N was greater than 100 µM in each case.
As for `CCOC(=O)NN(C(=O)OCC)C(C(=O)C1=CCCCC1)N(NC(=O)OCC)C(=O)OCC`, the TGI with SNB-75 CNS, in the assay with COLO 205 colon, in the assay on MOLT-4 leukemia, with MDA-MB-435, with NCI-H522 lung and with K-562 leukemia was greater than 100 µM throughout. The TGI in the assay on LOX IMVI melanoma, in the assay on OVCAR-5 ovarian, with SK-OV-3 ovarian and with MDA-N was greater than 100 µM throughout.
Consider `COc1cc(C)c(/C=C2/N=C(c3ccccc3)OC2=O)c([N+](=O)[O-])c1OC`, for which the TGI with SNB-75 CNS, in the assay with COLO 205 colon, in the assay on MOLT-4 leukemia, with MDA-MB-435, in the assay on NCI-H522 lung and in the assay on K-562 leukemia was greater than 100 µM each time. For the same molecule, the TGI with LOX IMVI melanoma, in the assay on OVCAR-5 ovarian, with SK-OV-3 ovarian and in the assay with MDA-N was greater than 100 µM in each case.
